This is an account of results in US4632922A, “Oxomorpholinyl dimer and rescue of anthracycline and mitomycin C damage” (The United States of America as represented by the …, priority 1985, dated 1986).

Data set [1] can be described thus: Stability of DHM3 in water upon exposure to air. It is filed as physicochemical. As to the method: Oxazinone 2 (6.0 g, 0.019 mol) was dissolved in 500 ml of 2-propanol (Fisher). The solution was irradiated with a 450 W mercury immersion lamp through a Pyrex filter. Throughout the reacion the photochemical apparatus was immersed in a bath kept at 0° C. and nitrogen was bubbled through the solution. The disappearance of the oxazinone chromophore was monitored by UV spectroscopy. After 24 h, when the UV maximum at 323 nm had disappeared, the irradiation was stopped, and the solvent quickly rotary evaporated without delay at ambient temperature (20°-28° C.) first at 15-20 Torr, then at 1 Torr. The residue was dissolved in 70 ml of chloroform and the solution was stored in a freezer at about -18° C. for 6 days. The resulting pricipitate was collected by suction filtration, washed thoroughly with cold chloroform (≈10° C.) and dried under vaccuum to give 2.9 g (48%) of a white powder, mp 121°-124° C. An additional crop of crystals (0.64 g) was obtained from the mother liquors after two more weeks in the freezer. […] Minor peaks in the spectrum were present in areas compatible with the presence of other stereoisomers. Infrared and analytical data are as follows: IR (KBr) 3160, 2900, 1715, 1455, 1285, 1220, 1040, 770, 715 cm^-1; anal. calcd. for C14 H24 N2 O6 : C, 53.15; H, 7.65; N, 8.85. Found: C, 53.00; H, 7.70; N, 8.84. […]

Data set [2] in a line: Kinetics of reaction of DHM3 with daunorubicin in methanol solvent. The procedure:
Oxomorpholinyl dimer DHM3 (5.8 mg) was dissolved in 100 ml of oxygen-free dichloromethane by stirring under nitrogen for 1 h. A portion of the solution (1.0 ml, 1.8×10^-4 mmol) of DHM3 was transferred via syringe to the spectrophotometric compartment of a two-compartment Pyrex cell with attachment for connection to a vacuum line with an Ultra Torr Union. The solvent was then evaporated with a stream of nitrogen. Daunorubicin hydrochloride (8.83 mg) was dissolved in 100 ml of a methanolic solution of 18.9 mg of tris(hydroxymethyl)aminomethane (Tris) and 24.7 mg of Tris hydrochloride. A portion of this solution (2.5 ml, 3.9×10^-4 mmol of 6) was introduced via syringe into the second compartment of the cell. The methanol solution was freeze (liquid nitrogen)-pump (2×10^-6 Torr)-thaw degassed through four cycles, sealed, and placed in a thermostatted cell holder at 25.1±0.1° C. for about 15 min. prior to mixing the solution with DHM3. After mixing, the average absorbance at 618 and 620 nm was recorded versus time. A non-linear least-squares treatment of the data as mentioned below gave a first order rate constant for bond homolysis of DHM3 equal to 1.8×10^-3 sec^-1.
The oxomorpholinyl dimer DHM3 causes reductive elimination of the sugar moiety, daunosamine, of daunorubicin (6) in much the same way as the structurally related bi(3,5,5-trimethyl-2-oxomorpholin-3-yl) (9). (See Schematic FIG. 2). […] The kinetics were established by regressional, non-linear least squares fitting of the absorbance versus time data to equation 1,
-k1))(e^-k.sbsp.1^t -e^-k.sbsp.2^t)
where At is the absorbance of 7 at time t, ε7 is the extinction coefficient of 7 at 618-620 nm, [DHM3]o is the concentration of DHM-3 at time zero, k1 is the rate constant for bond homolysis of DHM3 and k2 is the rate constant for tautomerization of 7 to 8. The value obtained for k1, 1.8×10^-3 sec^-1, was approximately half that obtained for bond homolysis of 9. […]

For `CC1(CO)COC(=O)C(C)(C2(C)NC(C)(CO)COC2=O)N1` (stereo not shown) [DHM3, bi(3,5-dimethyl-5-hydroxymethyl-2-oxomorpholin-3-yl)], the “stability to air in water” value in data set [1] was “quickly gives rise to an absorption maximum at 310 nm, characteristic of the oxazinone”. Besides, the “reaction product with daunorubicin” value in data set [2] (1:2 molar ratio, oxygen degassed methanol, 25° C.) was “gives 7-deoxydaunorubicinone 8 as the only reaction product”. Besides, the “k1 relative to that obtained for bond homolysis of 9” value in data set [2] (methanol, 25° C.) was “approximately half”. Moreover, the “first order rate constant for bond homolysis of DHM3 (k1)” value in data set [2] (methanol, 25.1±0.1° C., with daunorubicin) came to 0.0018 s⁻¹.
